Measured values from patent US20020119993A1, “Potentiator for neurotrophin effect” (SANKO COMPANY, LIMITED, priority 1999, published 2002).
Each block holds one compound with its values, some of them ahead of it.

What was measured:
[1] = system: sensory neurons in the dorsal root ganglion of the rat spinal cord; assay: Survival of sensory neurons of the dorsal root ganglion of the rat spinal cord; assay type: cell-based; settings: for Effect on NGF or NT-3 prolonged survival of sensory neurons in the dorsal root ganglion (in words): with NGF or NT-3
Procedure: Effects on Survival of Ganglion Sensory Neurons in Dorsal Spinal Root Ganglion of the Rat Spinal Cord
The dorsal root ganglion of the spinal cord was isolated from fetuses of the SD rat (Nippon SLC) on 17 days definite pregnancy under a stereoscopic microscope. The ganglion was then treated with 1 mg/ml of collagenase, 2 mg/ml of trypsin and 2 mg/ml of DNase I, followed by dispersion in an MEM medium containing 10% bovine fetal serum. Immediately after the sensory neuron suspension was charged in a 12-well plate (Becton Dickinson Labware) which was coated in advance with laminin and poly-D-lysine, a neurotrophin (NGF or NT-3) and 1-amino-3,8-dichloro-6(5H)-phenanthridinone (Compound No. 166) or 6(5H)-phenanthridinone (Compound A) were added. When half of the medium was exchanged on the next day, cytosine arabinoside was added to the culture medium at a final concentration of 10 μM, in order to cause cell death other than to neurons. A neurotrophin and the test compound were added to the medium at their original concentrations. After culturing for a further two days, the neurons were photographed under a microscope and the number of viable neurons was counted.

[2] = system: PC12 cells; assay: Induction of differentiation (neurite outgrowth) in PC12 cells with neurotrophin; assay type: cell-based, rat; settings: for Ratio of PC12 cells having an outgrowth (%): 72 hours; for Differentiation-induction of PC12 cells by neurotrophin alone (in words): neurotrophin used alone
Source text: Induction of Differentiation in […] strain (PC12 cell) derived from Rat Adrenal Medulla
PC12 cells were suspended in a DEM medium containing 10% equine serum and 5% bovine serum and the resulting suspension was charged in a collagen-coated 24-well plate. Twenty-four hours later, the medium was exchanged. A neurotrophin [human recombinant NGF or NT-3 (Austral Biologicals)] and 1-amino-3,8-dichloro-6(5H)-phenanthridinone (Compound No. 166) synthesized in accordance with the process described in Journal of Heterocyclic Chemistry, Z, 597 (1970), were added and cultured for 72 hours. After the medium was discarded, the cells were fixed with 2% glutaraldehyde and were observed under a microscope. The ratio of the cells having a longer outgrowth than the cell body was determined.

[3] = system: neurotrophin receptor Trk; assay: Neurotrophin receptor Trk activation (phosphotyrosine) in hippocampal and strial tissue slices of matured rat; assay type: cell-based; settings: for Amount of neurotrophin receptor Trk activated in matured rat cerebral tissues: relative to the amount (100) activated by NGF in the strial tissue
Procedure: Enhancing Action of Neurotrophin Response in Hippocampal and Strial Tissue Slices of Matured Rat
Male SD rats (Nippon SLC) were decapitated under anesthesia and the hippocampus and the corpus striatum were isolated. The tissue was cut into 0.2×0.2 mm slices with a “McIlwain Tissue Chopper” (Mickle Laboratory Engineering Company), and were suspended in a DMEM medium. A neurotrophin (NGF or NT-3) and 1-amino-3,8-dichloro-6(5H)-phenanthridinone were added to the suspension and the mixture was kept at 37° C. for 20 minutes. After washing the tissue with ice-cooled tris buffer physiological saline (TBS), the mixture was stirred vigorously and dissolved in TBS containing 1% Triton-X100, 10 μg/ml of leupeptin, 10 µg/ml of aprotinin, 1 mM of phenylmethylsulfonyl fluoride and 1 mM of sodium vanadate. After centrifugation at 14000 g for 15 minutes, the amount of protein in the supernatant was determined with Protein Assay Kit (Bio-Rad Laboratories, Ltd.). Anti-Trk antibody C-14 (Santa Cruz Biotechnology Inc) which specifically binds to Trk, a neurotrophin receptor, was added to the extract which was adjusted to contain an equal amount of protein and mixed at 4° C. for 16 hours. Thus the Trk receptor in the tissue extract formed an immunocomplex with the antibody. The immunocomplex was precipitated with protein A Sepharose beads (Amersham Pharmacia Biotech). The Trk protein collected was separated from other proteins by sodium dodecyl sulfate-polyacrylamide gel electrophoresis and then transferred to a nitrocellulose membrane by Western blot assay. The membrane was reacted with Antibody 4G10 (Upstate Biotechnology Inc) which recognizes phosphotyrosine and the amount of phosphotyrosine of the Trk protein fixed on the membrane was visualized on a film by an enhanced chemiluminescence kit (Amersham Pharmacia Biotech). The film was photographed by a digital camera and the density of the band was determined by digital image analyzing software (Eastman Kodak Company).

[4] = Table 4, NT-3 100 ng/ml + compound 1 μM
[5] = Table 4, neurotrophin-free, compound 1 μM

Compound: O=c1[nH]c2ccccc2c2ccccc12 [Compound A, 6(5H)-phenanthridinone, reference compound]
Number of viable sensory neurons in the dorsal root ganglion of the rat spinal cord (per mm^2) [1, 4]: 37 ± 3.6 per mm^2
Number of viable sensory neurons in the dorsal root ganglion of the rat spinal cord (per mm^2) [1, 5]: 6 ± 0.8 per mm^2
Effect on NGF or NT-3 prolonged survival of sensory neurons in the dorsal root ganglion (in words) [1]: had no effects

Compound: Nc1cc(Cl)cc2[nH]c(=O)c3cc(Cl)ccc3c12 [Compound No. 166, 1-amino-3,8-dichloro-6(5H)-phenanthridinone]
Ratio of PC12 cells having an outgrowth (%) ([2]; NGF 5 ng/ml + compound 3 μM): 12 ± 1.3%
Ratio of PC12 cells having an outgrowth (%) ([2]; NGF 5 ng/ml + compound 30 μM): 29 ± 2.6%
Ratio of PC12 cells having an outgrowth (%) ([2]; NGF 20 ng/ml + compound 3 μM): 51 ± 6.5%
Ratio of PC12 cells having an outgrowth (%) ([2]; NGF 20 ng/ml + compound 30 μM): 72 ± 2.0%
Ratio of PC12 cells having an outgrowth (%) ([2]; NGF 50 ng/ml + compound 3 μM): 79 ± 3.0%
Ratio of PC12 cells having an outgrowth (%) ([2]; NGF 50 ng/ml + compound 30 μM): 88 ± 0.7%
Ratio of PC12 cells having an outgrowth (%) ([2]; NT-3 100 ng/ml + compound 3 μM): 62 ± 0.2%
Ratio of PC12 cells having an outgrowth (%) ([2]; NT-3 100 ng/ml + compound 30 μM): 73 ± 3.6%
Effect on NGF-induced differentiation and neurite outgrowth in PC12 cells (in words) ([2]; applied with NGF): potentiated the NGF-induced differentiation and neurite outgrowth in PC12 cells
Effect on differentiation-induction of PC12 cells (in words) ([2]; combined application with NT-3): markedly potentiated the differentiation-induction of PC12 cells
Number of viable sensory neurons in the dorsal root ganglion of the rat spinal cord (per mm^2) ([1]; Table 3, NGF 1 ng/ml + compound 3 μM): 71 ± 1.7 per mm^2
Number of viable sensory neurons in the dorsal root ganglion of the rat spinal cord (per mm^2) ([1]; Table 3, NT-3 100 ng/ml + compound 3 μM): 168 ± 21.1 per mm^2
Number of viable sensory neurons in the dorsal root ganglion of the rat spinal cord (per mm^2) ([1]; Table 3, neurotrophin-free, compound 3 μM): 24 ± 1.6 per mm^2
Number of viable sensory neurons in the dorsal root ganglion of the rat spinal cord (per mm^2) [1, 4]: 133 ± 13.1 per mm^2
Number of viable sensory neurons in the dorsal root ganglion of the rat spinal cord (per mm^2) [1, 5]: 11 ± 4.0 per mm^2
Effect on NGF or NT-3 prolonged survival of sensory neurons in the dorsal root ganglion (in words) [1]: markedly potentiated the effects of NGF or NT-3
Amount of neurotrophin receptor Trk activated in matured rat cerebral tissues ([3]; Corpus striatum, NT-3 100 ng/ml + compound 30 μM): 68
Amount of neurotrophin receptor Trk activated in matured rat cerebral tissues ([3]; Hippocampus, NT-3 100 ng/ml + compound 30 μM): 58
Neurotrophin enhancing action in the adult central nervous system (in words) ([3]; matured rat cerebral tissue slices, Table 5): has a neurotrophin enhancing action in the adult central nervous system

Compound: NGF: human recombinant NGF (nerve growth factor), a neurotrophin (Austral Biologicals)
Ratio of PC12 cells having an outgrowth (%) ([2]; neurotrophin alone 5 ng/ml, compound-free): 8 ± 0.9%
Ratio of PC12 cells having an outgrowth (%) ([2]; neurotrophin alone 20 ng/ml, compound-free): 27 ± 2.8%
Ratio of PC12 cells having an outgrowth (%) ([2]; neurotrophin alone 50 ng/ml, compound-free): 57 ± 3.6%
Differentiation-induction of PC12 cells by neurotrophin alone (in words) [2]: induced differentiation of PC12 cells
Number of viable sensory neurons in the dorsal root ganglion of the rat spinal cord (per mm^2) ([1]; Table 3, neurotrophin alone 1 ng/ml, compound-free): 44 ± 5.5 per mm^2

Amount of neurotrophin receptor Trk activated in matured rat cerebral tissues ([3]; Corpus striatum, NT-3 100 ng/ml alone): 12
Amount of neurotrophin receptor Trk activated in matured rat cerebral tissues ([3]; Hippocampus, NT-3 100 ng/ml alone): 27
Compound: NT-3: neurotrophin-3, a neurotrophin (Austral Biologicals)
Ratio of PC12 cells having an outgrowth (%) ([2]; neurotrophin alone 100 ng/ml, compound-free): 2 ± 0.6%
Differentiation-induction of PC12 cells by neurotrophin alone (in words) [2]: did not cause any sufficient differentiation-induction by itself
Number of viable sensory neurons in the dorsal root ganglion of the rat spinal cord (per mm^2) ([1]; Table 3, neurotrophin alone 100 ng/ml, compound-free): 19 ± 5.0 per mm^2
Number of viable sensory neurons in the dorsal root ganglion of the rat spinal cord (per mm^2) ([1]; Table 4, neurotrophin alone 100 ng/ml, compound-free): 33 ± 4.9 per mm^2
